The results in this text go back to patent publication US9938261B2, “Heterocyclic compounds and methods of use thereof” (AMBIT BIOSCIENCES CORPORATION, priority 2011, dated 2018).

Bounds are passed on as bounds.

The target of one experiment is T1, PDGFRβ (Homo sapiens, UniProt P09619).
T1 construct: made in house
The experiment is described as follows: Competition binding assay, PDGFRβ Kd. To be noted: competition binding. In short, it runs like this: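 First, biotinylated affinity ligands were loaded onto streptavidin magnetic beads and blocked. Kinase, beads and compound were then equilibrated 1 hour at room temperature, washed, and eluted with non-biotinylated ligand. Eluted kinase was measured by qPCR, with Kd fitted from an eleven-point threefold dilution series.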

For the next experiment, the system named is M-NFS-60 cells. The experiment can be described thus: M-NFS-60 cell proliferation assay (Alamar Blue). It is filed as cell-based, mouse. To be noted: Mus musculus; M-NFS-60 cell proliferation; read-out: CSF1R M-NFS-60 CTB:IC50. A digest of the protocol: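 Mouse M-NFS-60 cells growing on 20 ng/mL M-CSF in RPMI/10% FBS were exposed to compounds (9 half-log concentrations, 0.5% DMSO) for 72 h at 37 °C. Viability read by Alamar Blue fluorescence (ex 560/em 590 nm, 3 h). IC50 = 50% proliferation inhibition versus control, mean of duplicates.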

For experiment [1], the target named is kinase panel containing either 386 or 392 distinct kinases. The experiment is described as follows: Kinase selectivity score S10 from competition binding panel. To be noted: 10 μM, panel of 386 or 392 distinct kinases. A digest of the protocol: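 Compounds at 10 μM competed against immobilised affinity ligands for T7 phage-fused or HEK-293-expressed DNA-tagged kinases, 1 h at room temperature; bound kinase eluted and quantified by qPCR. S10 = fraction of distinct non-mutant kinases with percent of DMSO control below 10.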

The target in a further experiment is CSF1R (Homo sapiens, UniProt P07333). The experiment is described as follows: HEK293 CSF1R phosphorylation MSD assay. It counts as cell-based. Set-up: expressed in transfected cells; host or cells: HEK293. To be noted: HEK293 cells, M-CSF stimulated CSF1R phosphorylation, MSD; read-out: HEK293 pCSF1R M-CSF MSD:IC50. In short, it runs like this: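 HEK293 cells expressing CSF1R-FKBP were pretreated 2 h at 37° C with 9 half-log concentrations of compound (0.5% DMSO final), then stimulated 5 min with 50 ng/mL human M-CSF. Lysates captured on biotin-FK506 plates; phosphotyrosine detected by MSD electrochemiluminescence. IC50 versus DMSO, averaged from duplicate plates.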
Chain of CSF1R (P07333 20-972): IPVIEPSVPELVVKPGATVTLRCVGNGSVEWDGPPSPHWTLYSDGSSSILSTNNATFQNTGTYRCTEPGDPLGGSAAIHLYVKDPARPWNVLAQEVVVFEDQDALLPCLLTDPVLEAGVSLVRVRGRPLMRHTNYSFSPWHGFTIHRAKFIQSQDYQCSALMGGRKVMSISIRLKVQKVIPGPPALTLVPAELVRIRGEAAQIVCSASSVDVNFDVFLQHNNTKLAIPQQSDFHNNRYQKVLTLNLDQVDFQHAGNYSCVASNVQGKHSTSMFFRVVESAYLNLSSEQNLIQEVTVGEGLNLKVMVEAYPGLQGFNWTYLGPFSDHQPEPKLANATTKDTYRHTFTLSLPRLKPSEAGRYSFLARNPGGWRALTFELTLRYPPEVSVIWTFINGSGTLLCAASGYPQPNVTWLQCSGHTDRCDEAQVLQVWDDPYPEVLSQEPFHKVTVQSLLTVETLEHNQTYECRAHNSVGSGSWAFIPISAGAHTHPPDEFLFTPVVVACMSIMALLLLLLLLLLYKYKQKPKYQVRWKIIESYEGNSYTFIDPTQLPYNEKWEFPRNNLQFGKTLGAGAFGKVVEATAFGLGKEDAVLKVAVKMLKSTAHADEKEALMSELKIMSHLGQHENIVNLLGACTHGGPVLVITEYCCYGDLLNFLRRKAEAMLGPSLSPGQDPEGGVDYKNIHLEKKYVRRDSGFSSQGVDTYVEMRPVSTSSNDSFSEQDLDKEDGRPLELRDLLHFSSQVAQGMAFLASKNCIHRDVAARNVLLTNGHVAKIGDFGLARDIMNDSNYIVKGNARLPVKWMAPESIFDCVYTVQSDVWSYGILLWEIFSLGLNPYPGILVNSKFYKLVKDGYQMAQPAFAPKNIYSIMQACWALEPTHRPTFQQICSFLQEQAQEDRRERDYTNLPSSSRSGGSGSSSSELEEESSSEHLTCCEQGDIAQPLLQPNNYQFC

T1 sequence (P09619 33-1106): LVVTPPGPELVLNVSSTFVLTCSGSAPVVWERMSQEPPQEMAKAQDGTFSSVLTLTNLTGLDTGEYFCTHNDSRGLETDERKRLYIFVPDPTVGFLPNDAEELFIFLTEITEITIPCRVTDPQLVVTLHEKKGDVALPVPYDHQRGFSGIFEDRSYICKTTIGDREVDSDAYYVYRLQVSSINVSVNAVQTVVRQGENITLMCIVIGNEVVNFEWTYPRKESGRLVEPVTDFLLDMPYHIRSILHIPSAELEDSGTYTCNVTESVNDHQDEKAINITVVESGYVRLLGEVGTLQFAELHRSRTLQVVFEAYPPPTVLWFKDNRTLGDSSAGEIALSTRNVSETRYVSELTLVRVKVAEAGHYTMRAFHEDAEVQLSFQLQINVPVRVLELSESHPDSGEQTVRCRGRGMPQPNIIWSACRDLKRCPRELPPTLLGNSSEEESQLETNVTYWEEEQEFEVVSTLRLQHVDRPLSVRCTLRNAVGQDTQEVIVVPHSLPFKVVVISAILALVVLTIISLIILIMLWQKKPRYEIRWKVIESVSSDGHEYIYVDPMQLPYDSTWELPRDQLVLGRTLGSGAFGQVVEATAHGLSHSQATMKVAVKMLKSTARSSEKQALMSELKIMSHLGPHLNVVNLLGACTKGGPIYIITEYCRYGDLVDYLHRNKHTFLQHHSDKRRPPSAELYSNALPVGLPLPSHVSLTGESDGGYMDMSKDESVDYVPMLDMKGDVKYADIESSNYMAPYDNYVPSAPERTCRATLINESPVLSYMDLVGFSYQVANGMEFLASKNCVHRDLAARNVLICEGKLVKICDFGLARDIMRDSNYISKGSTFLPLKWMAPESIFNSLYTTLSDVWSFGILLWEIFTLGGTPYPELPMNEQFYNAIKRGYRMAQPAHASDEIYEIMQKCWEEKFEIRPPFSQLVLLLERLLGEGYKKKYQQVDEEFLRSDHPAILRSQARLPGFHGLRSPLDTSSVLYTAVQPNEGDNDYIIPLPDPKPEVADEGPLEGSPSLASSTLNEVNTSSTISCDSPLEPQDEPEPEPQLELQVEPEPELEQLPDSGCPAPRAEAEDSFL

Take `N#Cc1ccc2c(c1)ncn2Cc1ccc2nc(N[C@@H]3CCCC[C@H]3O)oc2c1` [Example 170, 1-((2-(((1R,2R)-2-hydroxycyclohexyl)amino)benzo[d]oxazol-6-yl)methyl)-1H-benzo[d]imidazole-5-carbonitrile]: the Kd on PDGFRβ is 0.5 to 2 µM. Also, the half-inhibitory concentration (IC50) in the experiment with M-NFS-60 cells is above 1.5 µM; on CSF1R, above 0.5 µM. Moreover, in experiment [1], the “Kinase specificity S(10)” value is listed as “A (A≤0.01)”.
Taken in the same sequence, the figures for `O[C@@H]1CCCC[C@H]1Nc1nc2ccc(Cn3cnc4cc(OCCN5CCOCC5)ccc43)cc2s1` [Example 171, (1R,2R)-2-((6-((5-(2-morpholinoethoxy)-1H-benzo[d]imidazol-1-yl)methyl)benzo[d]thiazol-2-yl)amino)cyclohexanol] were at most 0.05 µM, 0.05 to 0.4 µM, at most 0.05 µM and “C (C>0.02)”.
Take `OCCOc1ccc2c(c1)ncn2Cc1ccc2nc(N[C@@H]3CCCC[C@H]3O)sc2c1` [Example 172, (1R,2R)-2-((6-((5-(2-hydroxyethoxy)-1H-benzo[d]imidazol-1-yl)methyl)benzo[d]thiazol-2-yl)amino)cyclohexanol]: the dissociation constant (Kd) on PDGFRβ fell in the range of 0.05 to 0.5 µM. The IC50 in the experiment with M-NFS-60 cells is 0.05 to 0.4 µM; at CSF1R it was at most 0.05 µM. The “Kinase specificity S(10)” value in experiment [1] was “B (0.01<B≤0.02)”.
Consider `CNC(=O)c1ccc2c(c1)ncn2Cc1ccc2nc(N[C@@H]3CCCC[C@H]3O)sc2c1` [Example 173, 1-((2-(((1R,2R)-2-hydroxycyclohexyl)amino)benzo[d]thiazol-6-yl)methyl)-N-methyl-1H-benzo[d]imidazole-5-carboxamide], for which, on PDGFRβ, the Kd was in the range of 0.05 to 0.5 µM. Moreover, the IC50 is 0.05 to 0.4 µM in the experiment with M-NFS-60 cells and 0.05 to 0.2 µM at CSF1R. In experiment [1], the “Kinase specificity S(10)” value is given as “B (0.01<B≤0.02)”.
For `C=C(c1ccc2c(c1)ncn2Cc1ccc2nc(N[C@@H]3CCCC[C@H]3O)sc2c1)C(F)(F)F` [Example 175, (1R,2R)-2-((6-((5-(3,3,3-trifluoroprop-1-en-2-yl)-1H-benzo[d]imidazol-1-yl)methyl)benzo[d]thiazol-2-yl)amino)cyclohexanol], in that order: 0.05 to 0.5 µM, 0.05 to 0.4 µM, 0.05 to 0.2 µM and “A (A≤0.01)”.
`Fc1cnc2c(c1)ncn2Cc1ccc2nc(N[C@H]3C=CCCC3)sc2c1` [Example 176, (R)—N-(cyclohex-2-en-1-yl)-6-((6-fluoro-3H-imidazo[4,5-b]pyridin-3-yl)methyl)benzo[d]thiazol-2-amine]: at PDGFRβ, the Kd fell in the range of 0.05 to 0.5 µM. In addition, the IC50 was in the range of 0.4 to 1.5 µM in the experiment on M-NFS-60 cells and 0.2 to 0.5 µM on CSF1R. For the same compound, the “Kinase specificity S(10)” value in experiment [1] is listed as “B (0.01<B≤0.02)”.
For `N#Cc1ccc2ncc(Cc3ccc4nc(N[C@@H]5CCCC[C@H]5O)sc4c3)n2n1` [Example 221, 3-((2-(((1R,2R)-2-hydroxycyclohexyl)amino)benzo[d]thiazol-6-yl)methyl)imidazo[1,2-b]pyridazine-6-carbonitrile], in that order: at most 0.05 µM, at most 0.05 µM, at most 0.05 µM and “B (0.01<B≤0.02)”.
For `O=c1c(N2CCOCC2)nccn1Cc1ccc2nc(N[C@@H]3CCCC[C@H]3O)sc2c1` [Example 222, 1-((2-(((1R,2R)-2-hydroxycyclohexyl)amino)benzo[d]thiazol-6-yl)methyl)-3-morpholinopyrazin-2(1H)-one], in that order: 0.5 to 2 µM, above 1.5 µM, above 0.5 µM and “A (A≤0.01)”.
Taken in the same sequence, the figures for `O=C(c1ccn2c(Cc3ccc4nc(N[C@@H]5CCCC[C@H]5O)sc4c3)cnc2c1)N1CCCC1` [Example 223, (3-((2-(((1R,2R)-2-hydroxycyclohexyl)amino)benzo[d]thiazol-6-yl)methyl)imidazo[1,2-a]pyridin-7-yl)(pyrrolidin-1-yl)methanone] were 0.05 to 0.5 µM, 0.05 to 0.4 µM, 0.05 to 0.2 µM and “A (A≤0.01)”.
The compound `O=C(O)/C=C/c1ccc2c(c1)ncn2Cc1ccc2nc(N[C@@H]3CCCC[C@H]3O)sc2c1` [Example 224, (E)-3-(1-((2-(((1R,2R)-2-hydroxycyclohexyl)amino)benzo[d]thiazol-6-yl)methyl)-1H-benzo[d]imidazol-5-yl)acrylic acid] came in with an equilibrium dissociation constant (Kd) on PDGFRβ of 0.05 to 0.5 µM. Further, the figures for the IC50 with M-NFS-60 cells and on CSF1R were above 1.5 µM and above 0.5 µM, respectively. For the same compound, the “Kinase specificity S(10)” value in experiment [1] is recorded as “A (A≤0.01)”.
`O[C@@H]1CCCC[C@H]1Nc1nc2ccc(Cn3cnc4cc(-n5ccnc5)ccc43)cc2s1` [Example 226, (1R,2R)-2-((6-((5-(1H-imidazol-1-yl)-1H-benzo[d]imidazol-1-yl)methyl)benzo[d]thiazol-2-yl)amino)cyclohexanol]: the Kd at PDGFRβ was at most 0.05 µM. Further, the IC50 in the experiment on M-NFS-60 cells and at CSF1R was at most 0.05 µM each time. In experiment [1], the “Kinase specificity S(10)” value is given as “B (0.01<B≤0.02)”.
As to `Cn1nnc(-c2ccc3c(c2)ncn3Cc2ccc3nc(N[C@@H]4CCCC[C@H]4O)sc3c2)n1` [Example 227, (1R,2R)-2-((6-((5-(2-methyl-2H-tetrazol-5-yl)-1H-benzo[d]imidazol-1-yl)methyl)benzo[d]thiazol-2-yl)amino)cyclohexanol], on PDGFRβ, the dissociation constant (Kd) was in the range of 0.05 to 0.5 µM. In addition, the concentration for half-maximal inhibition (IC50) with M-NFS-60 cells and on CSF1R was at most 0.05 µM throughout. In addition, the “Kinase specificity S(10)” value in experiment [1] is “B (0.01<B≤0.02)”.
Compound `O[C@H]1[C@@H](O)CCC[C@H]1Nc1nc2ccc(Cn3cnc4cc(F)cnc43)cc2s1` [Example 228, (1S,2R,3R)-3-((6-((6-fluoro-3H-imidazo[4,5-b]pyridin-3-yl)methyl)benzo[d]thiazol-2-yl)amino)cyclohexane-1,2-diol] registered a Kd at PDGFRβ of 0.05 to 0.5 µM. Also, the concentration for half-maximal inhibition (IC50) in the experiment with M-NFS-60 cells is above 1.5 µM; on CSF1R it was above 0.5 µM. In experiment [1], the “Kinase specificity S(10)” value was “A (A≤0.01)”.
Turning to `O[C@@H]1[C@H](O)CCC[C@H]1Nc1nc2ccc(Cc3cnc4cc(-n5cccn5)ccn34)cc2s1` [Example 229, (1R,2S,3R)-3-((6-((7-(1H-pyrazol-1-yl)imidazo[1,2-a]pyridin-3-yl)methyl)benzo[d]thiazol-2-yl)amino)cyclohexane-1,2-diol], at PDGFRβ, the equilibrium dissociation constant (Kd) was at most 0.05 µM. The 50% inhibitory concentration (IC50) in the experiment with M-NFS-60 cells was 0.05 to 0.4 µM; on CSF1R it was at most 0.05 µM. For the same compound, the “Kinase specificity S(10)” value in experiment [1] is reported as “A (A≤0.01)”.
`O[C@@H]1[C@H](O)CCC[C@H]1Nc1nc2ccc(Cc3cnc4cc(-n5nccn5)ccn34)cc2s1` [Example 231, (1R,2S,3R)-3-((6-((7-(2H-1,2,3-triazol-2-yl)imidazo[1,2-a]pyridin-3-yl)methyl)benzo[d]thiazol-2-yl)amino)cyclohexane-1,2-diol] had a dissociation constant (Kd) at PDGFRβ of 0.05 to 0.5 µM. Further, the IC50 in the experiment with M-NFS-60 cells and on CSF1R was at most 0.05 µM throughout. The “Kinase specificity S(10)” value in experiment [1] is “A (A≤0.01)”.
At PDGFRβ, `C=Cc1ccc2c(c1)ncn2Cc1ccc2nc(N[C@@H]3CCC[C@@H](O)[C@H]3O)sc2c1` [Example 232, (1R,2S,3R)-3-((6-((5-vinyl-1H-benzo[d]imidazol-1-yl)methyl)benzo[d]thiazol-2-yl)amino)cyclohexane-1,2-diol] had a dissociation constant (Kd) of at most 0.05 µM. The IC50 in the experiment with M-NFS-60 cells and at CSF1R was at most 0.05 µM throughout. For the same compound, in experiment [1], the “Kinase specificity S(10)” value was “A (A≤0.01)”.
`O[C@@H]1[C@H](O)CCC[C@H]1Nc1nc2ccc(Cn3cnc4cc(OC5COC5)ccc43)cc2s1` [Example 233, (1R,2S,3R)-3-((6-((5-(oxetan-3-yloxy)-1H-benzo[d]imidazol-1-yl)methyl)benzo[d]thiazol-2-yl)amino)cyclohexane-1,2-diol] showed a dissociation constant (Kd) at PDGFRβ of at most 0.05 µM. For the same compound, the concentration for half-maximal inhibition (IC50) was 0.05 to 0.4 µM in the experiment on M-NFS-60 cells and at most 0.05 µM at CSF1R. The “Kinase specificity S(10)” value in experiment [1] is “A (A≤0.01)”.
`O[C@@H]1[C@H](O)CCC[C@H]1Nc1nc2ccc(Cn3cnc4cc(-n5cncn5)cnc43)cc2s1` [Example 234, (1R,2S,3R)-3-((6-((6-(1H-1,2,4-Triazol-1-yl)-3H-imidazo[4,5-b]pyridin-3-yl)methyl)benzo[d]thiazol-2-yl)amino)cyclohexane-1,2-diol] gave an equilibrium dissociation constant (Kd) on PDGFRβ of at most 0.05 µM. Further, the half-inhibitory concentration (IC50) in the experiment with M-NFS-60 cells lay within 0.05 to 0.4 µM; at CSF1R, 0.05 to 0.2 µM. Also, in experiment [1], the “Kinase specificity S(10)” value is “A (A≤0.01)”.
The compound `O[C@@H]1[C@H](O)CCC[C@H]1Nc1nc2ccc(Cn3cnc4cc(N5CCOCC5)ccc43)cc2s1` [Example 235, (1R,2S,3R)-3-((6-((5-morpholino-1H-benzo[d]imidazol-1-yl)methyl)benzo[d]thiazol-2-yl)amino)cyclohexane-1,2-diol] showed a dissociation constant (Kd) at PDGFRβ of at most 0.05 µM. The half-inhibitory concentration (IC50) was in the range of 0.05 to 0.4 µM with M-NFS-60 cells and 0.05 to 0.2 µM on CSF1R. Besides, in experiment [1], the “Kinase specificity S(10)” value is “A (A≤0.01)”.
